# Assay results taken from ChEMBL document CHEMBL4680144, “N-thiadiazole-4-hydroxy-2-quinolone-3-carboxamides bearing heteroaromatic rings as novel antibacterial agents: Design, synthesis, biological evaluation and target identification” (Eur J Med Chem, 2020).
# How the values were obtained:
# Staphylococcus aureus [1] = assay: Antibacterial activity against wild type methicillin-sensitive Staphylococcus aureus ATCC 29213 assessed as inhibition of bacterial growth incubated for 18 to 24 hrs by broth microdilution method; format: functional; settings: time 18-24 hrs
# Staphylococcus aureus [2] = assay: Antibacterial activity against methicillin-resistant Staphylococcus aureus clinical isolate 15-1 assessed as inhibition of bacterial growth incubated for 18 to 24 hrs by broth microdilution method; format: functional; settings: time 18-24 hrs
# Staphylococcus aureus [3] = assay: Antibacterial activity against methicillin-resistant Staphylococcus aureus clinical isolate 15-2 assessed as inhibition of bacterial growth incubated for 18 to 24 hrs by broth microdilution method; format: functional; settings: time 18-24 hrs
# Staphylococcus aureus [4] = assay: Antibacterial activity against methicillin-resistant Staphylococcus aureus clinical isolate 15-3 assessed as inhibition of bacterial growth incubated for 18 to 24 hrs by broth microdilution method; format: functional; settings: time 18-24 hrs
# Staphylococcus aureus [5] = assay: Antibacterial activity against methicillin-resistant Staphylococcus aureus clinical isolate 15-6 assessed as inhibition of bacterial growth incubated for 18 to 24 hrs by broth microdilution method; format: functional; settings: time 18-24 hrs
# Staphylococcus aureus [6] = assay: Antibacterial activity against methicillin-resistant Staphylococcus aureus clinical isolate 15-7 assessed as inhibition of bacterial growth incubated for 18 to 24 hrs by broth microdilution method; format: functional; settings: time 18-24 hrs
# Staphylococcus aureus [7] = assay: Antibacterial activity against methicillin-resistant Staphylococcus aureus clinical isolate 15-8 assessed as inhibition of bacterial growth incubated for 18 to 24 hrs by broth microdilution method; format: functional; settings: time 18-24 hrs
# Staphylococcus aureus [8] = assay: Antibacterial activity against methicillin-resistant Staphylococcus aureus clinical isolate 15-9 assessed as inhibition of bacterial growth incubated for 18 to 24 hrs by broth microdilution method; format: functional; settings: time 18-24 hrs
# Staphylococcus aureus [9] = assay: Antibacterial activity against methicillin resistant and vancomycin-intermediate sensitive Staphylococcus aureus ATCC 700699 assessed as inhibition of bacterial growth incubated for 18 to 24 hrs by broth microdilution method; format: functional; settings: time 18-24 hrs
# Staphylococcus aureus [10] = assay: Antibacterial activity against methicillin resistant and vancomycin-intermediate sensitive Staphylococcus aureus ATCC 700788 assessed as inhibition of bacterial growth incubated for 18 to 24 hrs by broth microdilution method; format: functional; settings: time 18-24 hrs
# [11] = test system: Staphylococcus epidermidis; assay: Antibacterial activity against methicillin-sensitive Staphylococcus epidermidis clinical isolate 15-3 assessed as inhibition of bacterial growth incubated for 18 to 24 hrs by broth microdilution method; format: functional; settings: time 18-24 hrs
# [12] = test system: Staphylococcus epidermidis; assay: Antibacterial activity against methicillin-sensitive Staphylococcus epidermidis clinical isolate 15-4 assessed as inhibition of bacterial growth incubated for 18 to 24 hrs by broth microdilution method; format: functional; settings: time 18-24 hrs
# [13] = test system: Staphylococcus epidermidis; assay: Antibacterial activity against methicillin-resistant Staphylococcus epidermidis clinical isolate 15-1 assessed as inhibition of bacterial growth incubated for 18 to 24 hrs by broth microdilution method; format: functional; settings: time 18-24 hrs
# [14] = test system: Staphylococcus epidermidis; assay: Antibacterial activity against methicillin-resistant Staphylococcus epidermidis clinical isolate 15-2 assessed as inhibition of bacterial growth incubated for 18 to 24 hrs by broth microdilution method; format: functional; settings: time 18-24 hrs
# [15] = test system: Staphylococcus epidermidis; assay: Antibacterial activity against methicillin-resistant Staphylococcus epidermidis clinical isolate 15-3 assessed as inhibition of bacterial growth incubated for 18 to 24 hrs by broth microdilution method; format: functional; settings: time 18-24 hrs
# Enterococcus faecalis [16] = assay: Antibacterial activity against Enterococcus faecalis clinical isolate 15-1 assessed as inhibition of bacterial growth incubated for 18 to 24 hrs by broth microdilution method; format: functional; settings: time 18-24 hrs
# Enterococcus faecalis [17] = assay: Antibacterial activity against Enterococcus faecalis clinical isolate 15-2 assessed as inhibition of bacterial growth incubated for 18 to 24 hrs by broth microdilution method; format: functional; settings: time 18-24 hrs
# Enterococcus faecium [18] = assay: Antibacterial activity against Enterococcus faecium clinical isolate 15-1 assessed as inhibition of bacterial growth incubated for 18 to 24 hrs by broth microdilution method; format: functional; settings: time 18-24 hrs
# Enterococcus faecium [19] = assay: Antibacterial activity against Enterococcus faecium clinical isolate 15-2 assessed as inhibition of bacterial growth incubated for 18 to 24 hrs by broth microdilution method; format: functional; settings: time 18-24 hrs
# Enterococcus faecalis [20] = assay: Antibacterial activity against vancomycin-resistant Enterococcus faecalis ATCC 51299 assessed as inhibition of bacterial growth incubated for 18 to 24 hrs by broth microdilution method; format: functional; settings: time 18-24 hrs
# Enterococcus faecalis [21] = assay: Antibacterial activity against vancomycin-resistant Enterococcus faecalis ATCC 700802 assessed as inhibition of bacterial growth incubated for 18 to 24 hrs by broth microdilution method; format: functional; settings: time 18-24 hrs
# Enterococcus faecalis [22] = assay: Antibacterial activity against vancomycin-resistant Enterococcus faecalis ATCC 51575 assessed as inhibition of bacterial growth incubated for 18 to 24 hrs by broth microdilution method; format: functional; settings: time 18-24 hrs
# [23] = Inhibition of Staphylococcus aureus Gyrase B using linear pBR322 DNA as substrate incubated for 30 mins in presence of ATP by ADP-Glo assay
smiles,measurement,setting,value
CCn1c(=O)c(C(=O)Nc2nnc(-c3ccccc3)s2)c(O)c2ccccc21,MIC,Staphylococcus aureus [1],0.39 µg/mL
same,MIC,Staphylococcus aureus [2],2 µg/mL
same,MIC,Staphylococcus aureus [3],2 µg/mL
same,MIC,Staphylococcus aureus [4],1 µg/mL
same,MIC,Staphylococcus aureus [5],0.5 µg/mL
same,MIC,Staphylococcus aureus [6],1 µg/mL
same,MIC,Staphylococcus aureus [7],0.5 µg/mL
same,MIC,Staphylococcus aureus [8],0.25 µg/mL
same,MIC,Staphylococcus aureus [9],2 µg/mL
same,MIC,Staphylococcus aureus [10],2 µg/mL
same,MIC,[11],1 µg/mL
same,MIC,[12],1 µg/mL
same,MIC,[13],1 µg/mL
same,MIC,[14],1 µg/mL
same,MIC,[15],1 µg/mL
same,MIC,Enterococcus faecalis [16],1 µg/mL
same,MIC,Enterococcus faecalis [17],1 µg/mL
same,MIC,Enterococcus faecium [18],1 µg/mL
same,MIC,Enterococcus faecium [19],2 µg/mL
same,MIC,Enterococcus faecalis [20],1 µg/mL
same,MIC,Enterococcus faecalis [21],1 µg/mL
same,MIC,Enterococcus faecalis [22],1 µg/mL
same,IC50,[23],1720 nM
CCn1c(=O)c(C(=O)Nc2nnc(-c3ccc(OC)cc3)s2)c(O)c2ccccc21,MIC,Staphylococcus aureus [1],3.12 µg/mL
same,IC50,[23],1140 nM
CCOc1ccc(-c2nnc(NC(=O)c3c(O)c4ccccc4n(CC)c3=O)s2)cc1,MIC,Staphylococcus aureus [1],100 µg/mL
same,IC50,[23],2300 nM
CCn1c(=O)c(C(=O)Nc2nnc(-c3ccccc3F)s2)c(O)c2ccccc21,MIC,Staphylococcus aureus [1],12.5 µg/mL
same,IC50,[23],990 nM
CCCCCCc1nnc(NC(=O)c2c(O)c3ccccc3n(CC)c2=O)s1,MIC,Staphylococcus aureus [1],12.5 µg/mL
same,IC50,[23],350 nM
CCn1c(=O)c(C(=O)Nc2nnc(-c3cccc(F)c3)s2)c(O)c2ccccc21,MIC,Staphylococcus aureus [1],6.25 µg/mL
same,IC50,[23],1810 nM
CCn1c(=O)c(C(=O)Nc2nnc(-c3ccc(C)cc3)s2)c(O)c2ccccc21,MIC,Staphylococcus aureus [1],6.25 µg/mL
same,IC50,[23],640 nM
CCn1c(=O)c(C(=O)Nc2nnc(-c3ccc(F)cc3)s2)c(O)c2ccccc21,MIC,Staphylococcus aureus [1],25 µg/mL
same,IC50,[23],2300 nM
CCn1c(=O)c(C(=O)Nc2nnc(-c3ccccc3OC)s2)c(O)c2ccccc21,MIC,Staphylococcus aureus [1],3.12 µg/mL
same,IC50,[23],760 nM
CCn1c(=O)c(C(=O)Nc2nnc(-c3ccccc3C)s2)c(O)c2ccccc21,MIC,Staphylococcus aureus [1],50 µg/mL
same,IC50,[23],3180 nM
CCn1c(=O)c(C(=O)Nc2nnc(-c3ccncc3)s2)c(O)c2ccccc21,MIC,Staphylococcus aureus [1],1.56 µg/mL
same,IC50,[23],240 nM
CCOc1ccccc1-c1nnc(NC(=O)c2c(O)c3ccccc3n(CC)c2=O)s1,MIC,Staphylococcus aureus [1],12.5 µg/mL
same,IC50,[23],2350 nM
CCn1c(=O)c(C(=O)Nc2nnc(-c3cccc(OC)c3)s2)c(O)c2ccccc21,MIC,Staphylococcus aureus [1],1.56 µg/mL
same,IC50,[23],2170 nM
Cn1c(=O)c(C(=O)Nc2nncs2)c(O)c2ccccc21,MIC,Staphylococcus aureus [1],6.25 µg/mL
same,IC50,[23],190 nM
CCn1c(=O)c(C(=O)Nc2nnc(-c3ccc(Br)cc3)s2)c(O)c2ccccc21,MIC,Staphylococcus aureus [1],12.5 µg/mL
same,IC50,[23],2190 nM
CCn1c(=O)c(C(=O)Nc2nnc(-c3cccc(C)c3)s2)c(O)c2ccccc21,MIC,Staphylococcus aureus [1],12.5 µg/mL
same,IC50,[23],1750 nM
CCn1c(=O)c(C(=O)Nc2nnc(C3CCCC3)s2)c(O)c2ccccc21,MIC,Staphylococcus aureus [1],6.25 µg/mL
same,IC50,[23],550 nM
